This assay has as its target T1, SIRT1 (Homo sapiens, UniProt Q96EB6).
T1 sequence (Q96EB6 1-747): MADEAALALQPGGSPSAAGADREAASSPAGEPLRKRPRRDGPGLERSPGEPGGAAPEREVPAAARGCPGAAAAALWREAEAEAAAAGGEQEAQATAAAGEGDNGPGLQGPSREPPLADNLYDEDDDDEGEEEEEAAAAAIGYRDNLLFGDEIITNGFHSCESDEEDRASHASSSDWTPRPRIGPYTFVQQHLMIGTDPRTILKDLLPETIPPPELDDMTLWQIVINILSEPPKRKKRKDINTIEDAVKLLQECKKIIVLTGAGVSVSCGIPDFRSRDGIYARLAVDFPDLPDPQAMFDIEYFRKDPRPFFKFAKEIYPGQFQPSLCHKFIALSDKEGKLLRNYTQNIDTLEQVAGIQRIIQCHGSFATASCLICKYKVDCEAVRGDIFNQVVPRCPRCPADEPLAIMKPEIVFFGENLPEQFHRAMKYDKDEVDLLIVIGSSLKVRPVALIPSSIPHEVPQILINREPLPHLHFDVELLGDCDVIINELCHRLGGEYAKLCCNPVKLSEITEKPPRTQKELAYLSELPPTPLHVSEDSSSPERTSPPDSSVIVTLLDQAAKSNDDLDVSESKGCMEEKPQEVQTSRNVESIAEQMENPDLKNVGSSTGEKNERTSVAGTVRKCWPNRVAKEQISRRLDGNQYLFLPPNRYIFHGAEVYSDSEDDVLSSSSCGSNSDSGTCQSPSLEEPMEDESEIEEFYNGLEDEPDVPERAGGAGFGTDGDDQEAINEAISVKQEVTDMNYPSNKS
The assay is described as follows: Mass spectrometry based SIRT1 deacetylase activation assay (acetylated p53-derived peptide substrate). The class given is biochemical. The note with it: 0.5 μM peptide substrate, 120 μM βNAD+, 10 nM SIRT1, 25 minutes at 25° C.
`c1cncc(CNc2cccc3[nH]c(-c4cccc(N5CCOCC5)c4)nc23)c1` [Compound 619]: the EC1.5 result is “B (EC1.5 1-25 uM)” and the “Fold Act. (percent maximum fold activation)” value was “B (Fold Activation <200%)”.
In the same order, the values of `O=C(Nc1cccc(CN2CCCC2)n1)c1cccc2[nH]c(-c3ccccc3C(F)(F)F)nc12` [Compound 620, N-(6-(pyrrolidin-1-ylmethyl)pyridin-2-yl)-2-(2-(trifluoromethyl)phenyl)-1H-benzo[d]imidazole-4-carboxamide] are “A (EC1.5<1.0 uM)” and “A (Fold activation >200%)”.
Regarding `O=C(Nc1ccc(CN2CCNCC2)cn1)c1cccc2[nH]c(-c3ccccc3C(F)(F)F)nc12` [Compound 621, N-(5-(piperazin-1-ylmethyl)pyridin-2-yl)-2-(2-(trifluoromethyl)phenyl)-1H-benzo[d]imidazole-4-carboxamide], the EC1.5 result is on record as “A (EC1.5<1.0 uM)” and the “Fold Act. (percent maximum fold activation)” value is given as “A (Fold activation >200%)”.
In the same order, the values of `O=C(Nc1cccc(CN2CCCC2)n1)c1cccc2[nH]c(-c3ccc(Cl)cc3C(F)(F)F)nc12` [Compound 622] are “A (EC1.5<1.0 uM)” and “A (Fold activation >200%)”.
The like results for `O=C(Nc1cccc(CN2CCCC2)n1)c1cccc2[nH]c(-c3cc(F)ccc3C(F)(F)F)nc12` [Compound 623] were, in that order, “A (EC1.5<1.0 uM)” and “A (Fold activation >200%)”.
With `O=C(Nc1ccc(CN2CCOCC2)cn1)c1cccc2[nH]c(-c3cc(F)ccc3C(F)(F)F)nc12` [Compound 624, 2-(5-fluoro-2-(trifluoromethyl)phenyl)-N-(5-(morpholinomethyl)pyridin-2-yl)-1H-benzo[d]imidazole-4-carboxamide], the EC1.5 entry is “B (EC1.5 1-25 uM)” and the “Fold Act. (percent maximum fold activation)” value is listed as “A (Fold activation >200%)”.
In the same order, the values of `O=C(Nc1ccc(CN2CCCC2)cn1)c1cccc2[nH]c(-c3cc(F)ccc3C(F)(F)F)nc12` [Compound 625] are “A (EC1.5<1.0 uM)” and “A (Fold activation >200%)”.
The like results for `Cc1cccc(-c2nc3c(C(=O)Nc4nccs4)cccc3[nH]2)c1OCCN1CCOCC1` [Compound 626] were, in that order, “B (EC1.5 1-25 uM)” and “A (Fold activation >200%)”.
In the same order, the values of `Cc1cccc(-c2nc3c(C(=O)Nc4ccccn4)cccc3[nH]2)c1OCCN1CCOCC1` [Compound 627] are “B (EC1.5 1-25 uM)” and “A (Fold activation >200%)”.
With `O=C(Nc1nccs1)c1cc(N2CCOCC2)cc2[nH]c(-c3ccccc3C(F)(F)F)nc12` [Compound 628, 6-morpholino-N-(thiazol-2-yl)-2-(2-(trifluoromethyl)phenyl)-1H-benzo[d]imidazole-4-carboxamide], the EC1.5 entry is recorded as “A (EC1.5<1.0 uM)” and the “Fold Act. (percent maximum fold activation)” value is reported as “A (Fold activation >200%)”.
The like results for `O=C(Nc1ccccn1)c1cc(N2CCOCC2)cc2[nH]c(-c3ccccc3C(F)(F)F)nc12` [Compound 629] were, in that order, “A (EC1.5<1.0 uM)” and “A (Fold activation >200%)”.
In the case of `O=C(Nc1cccnc1)c1cc(N2CCOCC2)cc2[nH]c(-c3ccccc3C(F)(F)F)nc12` [Compound 630], the EC1.5 result was “A (EC1.5<1.0 uM)” and the “Fold Act. (percent maximum fold activation)” value is “A (Fold activation >200%)”.
In the same order, the values of `O=C(Nc1cccnn1)c1cc(N2CCOCC2)cc2[nH]c(-c3ccccc3C(F)(F)F)nc12` [Compound 631] are “A (EC1.5<1.0 uM)” and “A (Fold activation >200%)”.
In the case of `COc1cc(C(=O)Nc2ccccn2)c2nc(-c3ccccc3C(F)(F)F)[nH]c2c1` [Compound 632, 6-methoxy-N-(pyridin-2-yl)-2-(2-(trifluoromethyl)phenyl)-1H-benzo[d]imidazole-4-carboxamide], the EC1.5 result is on record as “A (EC1.5<1.0 uM)” and the “Fold Act. (percent maximum fold activation)” value was “A (Fold activation >200%)”.
